Results: article PMC10762078, “Role of UPF1-LIN28A interaction during early differentiation of pluripotent stem cells” (Nature Communications, 2024)
Ends that are not written are not given here.

Experiments:
[1] = test system: UPF1-LIN28A interaction; assay: Proximity ligation assay (PLA) of UPF1-LIN28A complexes; type: cell-based; details: LIN28A-overexpressing HeLa and CHA15 cells, n = 3
Procedure: The in situ proximity ligation assay (PLA) was performed on fixed and permeabilised cells using Duolink In Situ Red kit mouse/rabbit (Sigma-Aldrich, DUO92101), according to the manufacturer’s protocol. Briefly, fixed and permeabilised cells were incubated with a blocking solution for 1 h at 37 °C and then incubated with the following primary antibodies: anti-UPF1 (Cell Signaling Technology, 12040; 1:200) and LIN28A (Cell Signaling Technology, 5930; 1:200) overnight at 4 °C. After incubation, the coverslips were washed twice with 1× buffer A, followed by incubation with PLA probes for 1 h at 37 °C. After washing twice with 1× buffer A for 5 min, the coverslip was incubated with the ligation solution for 30 min at 37 °C. Coverslips were washed twice with 1× buffer A, followed by an amplification step with polymerase for 100 min at 37 °C. Finally, the coverslip was washed twice with 1× buffer B and once with 0.01× buffer B and then mounted in […] with DAPI mounting medium (Vector Laboratories, H1200).
Immunofluorescence staining, proximity ligation assay imaging, and cell-penetrating efficiency of CPP-FITC were imaged with a confocal laser scanning microscope (Leica, TSC SP5) or immunofluorescence microscope (Leica, DM5000B). Z-stacks were captured, with sections spanning the entire cell. […]

[2] = biological target: T1, His-LIN28A (Homo sapiens, UniProt Q9H9Z2); assay: SPR kinetic evaluation of peptide binding to immobilised His-LIN28A
T1 construct: purchased LS-bio LS-G637
T1 sequence (Q9H9Z2 1-209): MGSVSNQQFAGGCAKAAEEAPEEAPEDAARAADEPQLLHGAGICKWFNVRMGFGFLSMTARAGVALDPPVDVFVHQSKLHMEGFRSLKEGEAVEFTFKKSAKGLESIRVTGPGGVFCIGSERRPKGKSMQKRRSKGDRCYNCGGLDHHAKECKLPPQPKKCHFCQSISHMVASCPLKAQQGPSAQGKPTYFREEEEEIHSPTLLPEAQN
Procedure: For ligand immobilisation, the nitrilotriacetic acid (NTA) surface gold sensor chip (icluebio) was activated with 5 mM NiCl2 (Xantec) at a flow rate of 30 μL/min, following equalisation with 1× HBS-T buffer. His-LIN28A (LS-bio, LS-G637) was used as a ligand protein and was applied to a sensor chip at a flow rate of 10 μL/min for 40 min after dilution in 1× HEPES-buffered saline (HBS-T) buffer at a 1/20 ratio. Approximately 1000 resonance units (RU) were bonded to the sensor chip after ligand immobilisation. RU was measured using iMSPR-ProX (icluebio). An indigenous NTA sensor chip was used as a reference channel.
Kinetics assessment was performed for peptides with RU values greater than 5.

[3] = test system: human fetal neural stem cells (VM-NSCs or CTX-NSCs); assay: H2O2-stressed human fetal neural stem cells: survival and neuronal markers (peer review file); type: cell-based; details: compared with CPP-P1
Excerpt: 4. In addition to identifying the differentiation markers, what are the effects of LIN28A-UPF1 interactions on the functional differentiation phenotypes?
We observed that the levels of stem cell markers, POU5F1 (OCT4) and NANOG, were reduced when UPF1 and LIN28A interaction was disrupted by the […]
To determine the effects of CPP-P8 during […]
split every 4~6-days. After CPP-P8 treatment, the cell phenotypes treated with CPP-P8 looked more like the spontaneous differentiated cells than the ones treated with CPP-P1 and CPP-P2 (Fig. 6c and Supplementary Fig. 6b in the revised manuscript).
The final experiment to determine the functional phenotypes used treated human fetal neural stem cells (ventral midbrain (VM)-NSCs or cortex (CTX)-NSCs), which was stressed by H2O2, with the peptides (CPP-P1 or P8), and differentiation to neurons was initiated. The immunofluorescence results […]
neuron markers, Tyrosine hydroxylase (TH) and TUJ1 compared with CPP-P1 treatment. We are preparing another manuscript to show the effects of CPP-P8 on neuronal differentiation, we would like […]
We hope our additional experiments have addressed the reviewer’s concern.
Original Manuscript Revised Manuscript
Fig. 1e Supplementary Fig. 6b
(1 picture or pasted object on this page, not shown here)

[4] = test system: nonsense-mediated mRNA decay (NMD); assay: NMD reporter (Gl, GPx1) mRNA by RT-qPCR in LIN28A-expressing HeLa cells with CPP-peptides (Fig. 5c); type: cell-based; details: FLAG control (no LIN28A) HeLa, CPP-peptide

Substance: KKKWCRKKKSSADEKRYRALKRTAERELLMNA [CPP-P8, CPP conjugated to P8]
- PLA signal of UPF1-LIN28A complexes [1]: weaker signals than CPP-P1 or -P2

Substance: KKKWCRKKKSSADEKRYRALKRTAERELLMNA [P8]
- kd ([2]; His-LIN28A ligand, peptide analyte 30 to 0.95 μM, HBS-T): 0.0137 s⁻¹
- kon ([2]; His-LIN28A ligand, peptide analyte 30 to 0.95 μM, HBS-T, read-out: ka): 2640 M⁻¹ s⁻¹
- binding affinity to LIN28A ([2]; diverse concentrations): high binding affinity to LIN28A
- cell survival ([3]; DAPI staining): increased cell survival (DAPI staining)
- dopaminergic neuron markers TH and TUJ1 [3]: upregulated dopaminergic

Substance: N-QKLDQKELQLEPM-C [P1, reference compound]
- relative GPx1 mRNA level ([4]; normalised to MUP, replicate set2): 1.035
- relative Gl mRNA level ([4]; normalised to MUP, replicate set3): 1.014
- GPx1 mRNA, mean ([4]; mean in t-test output, n = 3): 0.2656
- Gl mRNA, mean ([4]; mean in t-test output, n = 3): 0.4223
